Measurements: US7378446B2, “Compound having anti-HCV activity and process for producing the same” (Chugai Seiyaku Kabushiki Kaisha, priority 2003, dated 2008)

Key:
in vitro = type: cell-based; settings: human; replicon cells, 3 days culture with compound, Cell Counting Kit 8, absorbance 450 nm; read-out: Cytotoxicity CC50
Experimental: (§1) A construct was prepared in which a luciferase gene derived from firefly was introduced as a reporter gene in HCV-RNA to assay the number of copies of HCV-RNA. The luciferase gene was introduced in the form of fusing with neomycin-resistance gene directly below the IRES (Internal Ribosome Entry Site) of the HCV gene in accordance with the method of Krieger, et al. (J. Virol. 75:4614). After synthesizing this RNA in vitro, it was introduced into Huh7 cell by electroporation and isolated as G418-resistant clone. Firefly luciferase HCV replicon cells (3-1) were suspended in Dulbecco's MEM (Gibco cat. no. 10569-010) containing 5% fetal bovine serum (Hyclone cat. no. SH30071.03), inoculated into the wells of a 96-well plate at 5000 cells/well and then cultured overnight at 37° C. and 5% CO2. Approximately 20 hours later, the diluted test compound was added at 10 μl per well followed by culturing for another 3 days. Two series of assay plates were prepared, and the assay was carried out using a white plate for one series and a clear plate for the other series. Following completion of culturing, the white plate was used for the Steady-Glo Luciferase Assay System (Promega cat. no. E2520). Namely, after adding 100 μl of reagent per well, mixing by a pipette 3 to 4 times and then allowing to stand for 5 minutes, luminescence was measured with the 1450 MicroBeta TRILUX (Wallac). Values obtained in the absence of cell addition were used as background values and subtracted from all values to calculate the IC50 (50% inhibitory concentration) of the drug based on a value of 0% inhibition for the value in the absence of addition of test compound.
The Cell Counting Kit 8 (Dojindo cat. no. CK04) was used to determine the cytotoxicity. Namely, 10 μl of Cell Counting Kit 8 were added to a clear plate and incubated for 30 to 60 minutes at 37° C. Absorbance at a wavelength of 450 nm and a control wavelength of 630 nm was measured with a 96-well plate reader. Values in the absence of cell addition were used as background values and subtracted from all values to calculate the CC50 (50% cell inhibitory concentration) of the drug based on a value of 0% inhibition for the value in the absence of addition of drug.

[1] = system: Firefly luciferase HCV replicon cells (3-1); assay: Replicon assay (firefly luciferase HCV replicon); type: cell-based; settings: Hepatitis C virus, 72 h; Huh7-derived luciferase HCV replicon cells, 3 days culture with compound, Steady-Glo luminescence
Experimental: as §1

SMILES | CC50 (in vitro) [nM] | IC50 [1] [nM]
CC(C)CCOc1ccc(C[C@H](NC(=O)[C@@H](/C=C/CCCCCCC(=O)CCC2CCCCC2)[C@](O)(CC(=O)O)C(=O)O)C(=O)O)cc1 [Compound 52] | > 1000 | 24
CCCCCCCC(=O)CCCCCC/C=C/[C@H](C(=O)N[C@@H](Cc1ccc(Oc2ccc(C)cc2)cc1)C(=O)O)[C@@](O)(CC(=O)O)C(=O)O [Compound 53] | > 1000 | 2
CCCCCCCC(=O)CCCCCC/C=C/[C@H](C(=O)N[C@@H](Cc1ccc(Oc2ccc(OC)cc2)cc1)C(=O)O)[C@@](O)(CC(=O)O)C(=O)O [Compound 54] | > 1000 | 2
CCCCCCCC(=O)CCCCCC/C=C/[C@H](C(=O)N[C@@H](Cc1ccc(Oc2ccc(C(F)(F)F)cc2)cc1)C(=O)O)[C@@](O)(CC(=O)O)C(=O)O [Compound 55] | > 1000 | 19
CCCCCCCC(=O)CCCCCC/C=C/[C@H](C(=O)N[C@@H](Cc1ccc(Oc2cccc(C)c2)cc1)C(=O)O)[C@@](O)(CC(=O)O)C(=O)O [Compound 56] | > 1000 | 6
CCCCCCCC(=O)CCCCCC/C=C/[C@H](C(=O)N[C@@H](Cc1ccc(Oc2cccc(C(F)(F)F)c2)cc1)C(=O)O)[C@@](O)(CC(=O)O)C(=O)O [Compound 57] | > 1000 | 11
CCCCCCCC(=O)CCCCCC/C=C/[C@H](C(=O)N[C@@H](Cc1ccc(-c2ccc(OC)cc2)cc1)C(=O)O)[C@@](O)(CC(=O)O)C(=O)O [Compound 58] | > 1000 | 4
CCCCCCCC(=O)CCCCCC/C=C/[C@H](C(=O)N[C@@H](Cc1ccc(-c2ccc(C)cc2)cc1)C(=O)O)[C@@](O)(CC(=O)O)C(=O)O [Compound 59] | > 1000 | 3
CCCCCCCC(=O)CCCCCC/C=C/[C@H](C(=O)N[C@@H](Cc1ccc(-c2ccc(C(F)(F)F)cc2)cc1)C(=O)O)[C@@](O)(CC(=O)O)C(=O)O [Compound 60] | > 1000 | 8
CCCCCCCC(=O)CCCCCC/C=C/[C@H](C(=O)N[C@@H](Cc1ccc(-c2cccc(C)c2)cc1)C(=O)O)[C@@](O)(CC(=O)O)C(=O)O [Compound 61] | > 1000 | 6
CCCCCCCC(=O)CCCCCC/C=C/[C@H](C(=O)N[C@@H](Cc1ccc(-c2cccc(OC)c2)cc1)C(=O)O)[C@@](O)(CC(=O)O)C(=O)O [Compound 62] | > 1000 | 2
CCCCCCCC(=O)CCCCCC/C=C/[C@H](C(=O)N[C@@H](Cc1ccc(-c2cccc(C(F)(F)F)c2)cc1)C(=O)O)[C@@](O)(CC(=O)O)C(=O)O [Compound 63] | > 1000 | 10
CCCCCCCC(=O)CCCCCC/C=C/[C@H](C(=O)N[C@@H](Cc1ccc(Oc2cccc(F)c2)cc1)C(=O)O)[C@@](O)(CC(=O)O)C(=O)O [Compound 64] | > 1000 | 7
CCCCCCCC(=O)CCCCCC/C=C/[C@H](C(=O)N[C@@H](Cc1ccc(-c2ccccc2F)cc1)C(=O)O)[C@@](O)(CC(=O)O)C(=O)O [Compound 65] | > 1000 | 2
CCCCCCCC(=O)CCCCCC/C=C/[C@H](C(=O)N[C@@H](Cc1ccc(-c2cccc(F)c2)cc1)C(=O)O)[C@@](O)(CC(=O)O)C(=O)O [Compound 66] | > 1000 | 6
CCCCCCCC(=O)CCCCCC/C=C/[C@H](C(=O)N[C@@H](Cc1ccc(Oc2ccc(N(C)C)cc2)cc1)C(=O)O)[C@@](O)(CC(=O)O)C(=O)O [Compound 67] | > 1000 | 4
CCCCCCCC(=O)CCCCCC/C=C/[C@H](C(=O)N[C@@H](Cc1ccc(-c2ccc(N(C)C)cc2)cc1)C(=O)O)[C@@](O)(CC(=O)O)C(=O)O [Compound 68] | > 1000 | 2
CCCCCCCC(=O)CCCCCC/C=C/[C@H](C(=O)N[C@@H](Cc1ccc(Nc2ccccc2)cc1)C(=O)O)[C@@](O)(CC(=O)O)C(=O)O [Compound 69] | > 1000 | 2

SMILES | CC50 (in vitro) [nM] | IC50 [1] [nM]
CCCCCCCC(=O)CCCCCC/C=C/[C@H](C(=O)N[C@@H](Cc1ccc(Oc2ccc(C#N)cc2)cc1)C(=O)O)[C@@](O)(CC(=O)O)C(=O)O [Compound 70] | > 1000 | 11
CCCCCCCC(=O)CCCCCC/C=C/[C@H](C(=O)N[C@@H](Cc1ccc(-c2ccc(C#N)cc2)cc1)C(=O)O)[C@@](O)(CC(=O)O)C(=O)O [Compound 71] | > 1000 | 4
CCCCCCCC(=O)CCCCCC/C=C/[C@H](C(=O)N[C@@H](Cc1ccc(N2CCOCC2)cc1)C(=O)O)[C@@](O)(CC(=O)O)C(=O)O [Compound 72] | > 1000 | 6
CCCCCCCC(=O)CCCCCC/C=C/[C@H](C(=O)N[C@@H](Cc1ccc(-c2ccc(OC)nc2)cc1)C(=O)O)[C@@](O)(CC(=O)O)C(=O)O [Compound 73] | > 1000 | 2
CCCCCCCC(=O)CCCCCC/C=C/[C@H](C(=O)N[C@@H](Cc1ccc(-c2ccc(S(=O)(=O)N(C)C)cc2)cc1)C(=O)O)[C@@](O)(CC(=O)O)C(=O)O [Compound 74] | > 1000 | 135
CCCCCCCC(=O)CCCCCC/C=C/[C@H](C(=O)N[C@@H](Cc1ccc(N(C)c2ccccc2)cc1)C(=O)O)[C@@](O)(CC(=O)O)C(=O)O [Compound 75] | > 1000 | 6
CCCCCCCC(=O)CCCCCC/C=C/[C@H](C(=O)N[C@@H](Cc1ccc(-c2cncnc2)cc1)C(=O)O)[C@@](O)(CC(=O)O)C(=O)O [Compound 76] | > 1000 | 13
CCCCCCCC(=O)CCCCCC/C=C/[C@H](C(=O)N[C@@H](Cc1ccc(-c2ccc(SC)cc2)cc1)C(=O)O)[C@@](O)(CC(=O)O)C(=O)O [Compound 77] | > 1000 | 7
CCCCCCCC(=O)CCCCCC/C=C/[C@H](C(=O)N[C@@H](Cc1ccc(-c2cncc(OC)c2)cc1)C(=O)O)[C@@](O)(CC(=O)O)C(=O)O [Compound 78] | > 1000 | 3
CCCCCCCC(=O)CCCCCC/C=C/[C@H](C(=O)N[C@@H](Cc1ccc(-c2c(C)noc2C)cc1)C(=O)O)[C@@](O)(CC(=O)O)C(=O)O [Compound 79] | > 1000 | 104
CCCCCCCC(=O)CCCCCC/C=C/[C@H](C(=O)N[C@@H](Cc1ccc(-c2ccc(S(C)(=O)=O)cc2)cc1)C(=O)O)[C@@](O)(CC(=O)O)C(=O)O [Compound 80] | > 1000 | 71
CCCCCCCC(=O)CCCCCC/C=C/[C@H](C(=O)N[C@@H](Cc1ccc(-c2cnc(OC)nc2)cc1)C(=O)O)[C@@](O)(CC(=O)O)C(=O)O [Compound 81] | > 1000 | 8
CCCCCCCC(=O)CCCCCC/C=C/[C@H](C(=O)N[C@@H](Cc1ccc(OCCCN)cc1)C(=O)O)[C@@](O)(CC(=O)O)C(=O)O [Compound 82] | > 1000 | 39
CCCCCCCC(=O)CCCCCC/C=C/[C@H](C(=O)N[C@@H](Cc1ccc(OC2CCN(C)CC2)cc1)C(=O)O)[C@@](O)(CC(=O)O)C(=O)O [Compound 83] | > 1000 | 108
CCCCCCCC(=O)CCCCCC/C=C/[C@H](C(=O)N[C@@H](Cc1ccc(OCCCN(C)C)cc1)C(=O)O)[C@@](O)(CC(=O)O)C(=O)O [Compound 84] | > 1000 | 43
CCCCCCCC(=O)CCCCCC/C=C/[C@H](C(=O)N[C@@H](Cc1ccc(OCc2cccnc2)cc1)C(=O)O)[C@@](O)(CC(=O)O)C(=O)O [Compound 85] | > 1000 | 1
CCCCCCCC(=O)CCCCCC/C=C/[C@H](C(=O)N[C@@H](Cc1ccc(OCCN2CCOCC2)cc1)C(=O)O)[C@@](O)(CC(=O)O)C(=O)O [Compound 86] | > 1000 | 7
